Test results: patent US8481524B2, “c-MET protein kinase inhibitors” (Vertex Pharmaceuticals Incorporated, priority 2007, dated 2013)
Entries after “also recorded” stand apart in the source; their conditions may differ.

System: c-Met in Snu5 gastric carcinoma cells
Assay: Inhibition of c-Met activity in Snu5 gastric carcinoma cells (Snu5-AP1-Luc-Pest luciferase signal)
Assay type: cell-based, human
Settings: for IC50: Homo sapiens, SNU-5, Snu5-AP1-Luc-Pest cells, 6 hours, Steady Glo luminescence; for activity compared with corresponding analog wherein R5 is hydrogen: Snu5 gastric carcinoma cell assay, comparison of IC50 values
Text: Compounds of the invention were also screened for their ability to inhibit the Luciferase-induced signal in an engineered Snu5 cell line. Snu5 [obtained from American Type Culture Collection (Catalog number CRL-5973)] is a human gastric carcinoma known to overexpress c-Met, which is constitutively active. The cell line was transduced with the retrovirus, pCLPCX, which contains a genetic construct consisting of 6×AP1 promoter response elements and a luciferase gene having a C-terminal PEST sequence (proteolytic signal from mouse ornithine decarboxylase, which reduces the half-life of the luciferase). The constitutively active cMet activates cellular pathways (principally MAP kinase), resulting in AP-1-induced transcription of luciferase-PEST and translation into the final product, the activity of which is quantifiable as a chemiluminescent readout upon the addition of luciferin (Steady-Glo from Promega.). Residual luminescence is strongly correlated to the inhibition of c-Met. A stable cell line was obtained by selecting the new cell line (Snu5-AP1-Luc-Pest) with puromycin. The cells were grown in complete media [Iscove's media (Invitrogen) containing 10% fetal bovine serum (FBS, Hyclone) and penicillin/gentamycin (Invitrogen)]. Compounds of the invention were dissolved in DMSO to make 10 mM initial stock solutions. Serial dilutions in DMSO were then made and transferred to complete medium to make a 10× solution. The Snu5-AP1-Luc-Pest cells were counted and diluted to 200,000-cells/mL solution. The cells (90 μL) were added to each well in a 96-well black with clear bottom plate (Costar). Then 10 μL of the 10× compound solution was added to the cells in triplicate. The plates were incubated in a 37° C./5% CO2 incubator. After 6 hours, 50 μL of the Steady Glo reagent (Promega) was added to each well and placed on a plate shaker for 5 minutes to ensure that the cells were completely lysed. The plate was read on a 1450 Microbeta Liquid Scintillation and Luminescence Counter (Perkin-Elmer). The IC50s were calculated using a 4-parameter fit using the graphing software Prism (GraphPad).

SMILES | IC50 [nM] | activity compared with corresponding analog wherein R5 is hydrogen
Cc1ccc(-n2nnnc2-c2cc(-c3cnn([C@@H]4CCNC4)c3)cnc2N)c(F)c1F [Compound 1] | 100 to 1000 | more active
Cc1ccc(-n2nnnc2-c2cc(-c3cnn([C@@H]4CCCNC4)c3)cnc2N)c(F)c1F [Compound 2] | ≤ 100 | more active
Cc1ccc(-n2nnnc2-c2cc(-c3cnn(C4CCCNCC4)c3)cnc2N)c(F)c1F (stereo not shown) [Compound 3] | ≤ 100 | more active
COc1ccc(-n2nnnc2-c2cc(-c3cnn([C@@H]4CCNC4)c3)cnc2N)c(F)c1F [Compound 4] | ≤ 100 | more active
Cc1ccc(-n2nnnc2-c2cc(-c3cnn([C@H]4CCCNC4)c3)cnc2N)c(F)c1F [Compound 5] | ≤ 100 | more active
COc1ccc(-n2nnnc2-c2cc(-c3cnn([C@H]4CCNC4)c3)cnc2N)c(F)c1F [Compound 6] | ≤ 100 | more active
Cc1ccc(-n2nnnc2-c2cc(-c3cnn([C@H]4CCNC4)c3)cnc2N)c(F)c1F [Compound 7] | 100 to 1000 | more active
COc1ccc(-n2nnnc2-c2cc(-c3cnn([C@@H]4CCCNC4)c3)cnc2N)c(F)c1F [Compound 8, 3-(1-(2,3-Difluoro-4-methoxyphenyl)-1H-tetrazol-5-yl)-5-(1-((R)-piperidin-3-yl)-1H-pyrazol-4-yl)pyridin-2-amine] | ≤ 100 | more active
COc1ccc(-n2nnnc2-c2cc(-c3cnn(C4CCCNCC4)c3)cnc2N)c(F)c1F (stereo not shown) [Compound 9] | 100 to 1000 | 
COc1ccc(-n2nnnc2-c2cc(-c3cnn([C@H]4CCCNC4)c3)cnc2N)c(F)c1F [Compound 10] | ≤ 100 | more active
Cc1ccc(-n2nnnc2-c2cc(-c3cnn(C4CCNCC4)c3)cnc2N)c(F)c1F [Compound 11, 3-(1-(2,3-Difluoro-4-methylphenyl)-1H-tetrazol-5-yl)-5-(1-(piperidin-4-yl)-1H-pyrazol-4-yl)pyridin-2-amine] | 100 to 1000 | more active
COc1ccc(-n2nnnc2-c2cc(-c3cnn(C4CCNCC4)c3)cnc2N)c(F)c1F [Compound 12, 3-(1-(2,3-difluoro-4-methoxyphenyl)-1H-tetrazol-5-yl)-5-(1-(piperidin-4-yl)-1H-pyrazol-4-yl)pyridin-2-amine] | 100 to 1000 | more active
Cc1ccc(-n2nnnc2-c2cc(-c3cc4c(s3)CCNCC4)cnc2N)c(F)c1F [Compound 13, 3-(1-(2,3-Difluoro-4-methylphenyl)-1H-tetrazol-5-yl)-5-(5,6,7,8-tetrahydro-4H-thieno[2,3-d]azepin-2-yl)pyridin-2-amine] | ≤ 100 | more active
COc1ccc(-n2nnnc2-c2cc(-c3cc4c(s3)CCNCC4C)cnc2N)c(F)c1F (stereo not shown) [Compound 14] | ≤ 100 | more active
COc1ccc(-n2nnnc2-c2cc(-c3cc4c(s3)CCNCC4)cnc2N)c(F)c1F [Compound 15] | ≤ 100 | more active
COc1ccc(-n2nnnc2-c2cc(-c3cnn(C4CC5CCC(C4)N5)c3)cnc2N)c(F)c1F (stereo not shown) [Compound 16] | ≤ 100 | more active
COc1ccc(-n2nnnc2-c2cc(-c3cnn(C4CC5CCC(C4)N5)c3)cnc2N)c(F)c1F (stereo not shown) [Compound 17] |  | more active
COc1ccc(-n2nnnc2-c2cc(-c3cn(C4CCNCC4)nc3C)cnc2N)c(F)c1F [Compound 18] | ≤ 100 | more active
CCC1Cc2sc(-c3cnc(N)c(-c4nnnn4-c4ccc(OC)c(F)c4F)c3)cc2CCN1 (stereo not shown) [Compound 19] | ≤ 100 | more active
COc1ccc(-n2nnnc2-c2cc(-c3cc4c(s3)CNCCC4)cnc2N)c(F)c1F [Compound 20] | 100 to 1000 | 
COc1ccc(-n2nnnc2-c2cc(-c3cc4c(s3)CCCNC4)cnc2N)c(F)c1F [Compound 21] | 100 to 1000 | more active
COc1ccc(-n2nnnc2-c2cc(-c3cc(C)c(C4CCNCC4)s3)cnc2N)c(F)c1F [Compound 22, 3-(1-(2,3-Difluoro-4-methoxyphenyl)-1H-tetrazol-5-yl)-5-(4-methyl-5-(piperidin-4-yl)thiophen-2-yl)pyridin-2-amine] | ≤ 100 | more active
CCCOc1ccc(-n2nnnc2-c2cc(-c3cc4c(s3)CCNCC4)cnc2N)c(F)c1F [Compound 23] | ≤ 100 | 
Cc1cc(-c2cnc(N)c(-c3nnnn3-c3ccc(C)c(F)c3F)c2)sc1C1CCNCC1 [Compound 24] | ≤ 100 | more active
CCOc1ccc(-n2nnnc2-c2cc(-c3cnn(C4CCNCC4)c3)cnc2N)c(F)c1F [Compound 25] | ≤ 100 | 

SMILES | IC50 [nM] | activity compared with corresponding analog wherein R5 is hydrogen
CC(C)Oc1ccc(-n2nnnc2-c2cc(-c3cnn(C4CCNCC4)c3)cnc2N)c(F)c1F [Compound 26] | ≤ 100 | 
COc1ccc(-n2nnnc2-c2cc(-c3cc4c(s3)CCNC(C)C4)cnc2N)c(F)c1F (stereo not shown) [Compound 27] | ≤ 100 | more active
Cc1ccc(-n2nnnc2-c2cc(-c3cc4c(s3)CCNC(C)C4)cnc2N)c(F)c1F (stereo not shown) [Compound 28] | ≤ 100 | more active
COc1ccc(-n2nnnc2-c2cc(-c3cc4c(s3)CCNCC4(C)C)cnc2N)c(F)c1F [Compound 29] | ≤ 100 | more active
Cc1ccc(-n2nnnc2-c2cc(-c3cc4c(s3)CCNCC4(C)C)cnc2N)c(F)c1F [Compound 30] | ≤ 100 | more active
Cc1cc(C2CCNCC2)sc1-c1cnc(N)c(-c2nnnn2-c2ccc(C)c(F)c2F)c1 [Compound 31] | 100 to 1000 | more active; also recorded: the unsubstituted compound has a lower IC50 value
COc1ccc(-n2nnnc2-c2cc(-c3sc(C4CCNCC4)cc3C)cnc2N)c(F)c1F [Compound 32] | ≤ 100 | more active
CC(C)Oc1ccc(-n2nnnc2-c2cc(-c3cc4c(s3)CCNCC4)cnc2N)c(F)c1F [Compound 33] | ≤ 100 | 
CCCOc1ccc(-n2nnnc2-c2cc(-c3cnn(C4CCNCC4)c3)cnc2N)c(F)c1F [Compound 34] | ≤ 100 | 
COCCOc1ccc(-n2nnnc2-c2cc(-c3cnn(C4CCNCC4)c3)cnc2N)c(F)c1F [Compound 35] | 100 to 1000 | 
COc1ccc(-n2nnnc2-c2cc(-c3cn(C4CCNCC4)nc3C(F)(F)F)cnc2N)c(F)c1F [Compound 36] | ≤ 100 | more active
COc1cc(F)c(-n2nnnc2-c2cc(-c3cnn(C4CCNCC4)c3)cnc2N)c(F)c1 [Compound 37] | ≤ 100 | 
Cc1ccc(-n2nnnc2-c2cc(-c3cnn(C4CCNCC4)c3)cnc2N)c(Cl)c1 [Compound 38] | 100 to 1000 | 
Cc1ccc(-n2nnnc2-c2cc(-c3cc4c(s3)CCNCC4)cnc2N)c(Cl)c1 [Compound 39] | 100 to 1000 | 
Cc1ccc(-n2nnnc2-c2cc(-c3cnn(C4CCNCC4)c3)cnc2N)cc1Cl [Compound 40] | > 1000 | 
Cc1ccc(-n2nnnc2-c2cc(-c3cnn(C4CCNCC4)c3)cnc2N)c(F)c1 [Compound 41] | 100 to 1000 | 
Cc1ccc(-n2nnnc2-c2cc(-c3cc4c(s3)CCNCC4)cnc2N)c(F)c1 [Compound 42] | 100 to 1000 | 
Cc1ccc(-n2nnnc2-c2cc(-c3cnn(C4CCNCC4)c3)cnc2N)cc1F [Compound 43] | 100 to 1000 | 
COc1ccc(-n2nnnc2-c2cc(-c3cn(C4CCCNCC4)nc3C)cnc2N)c(F)c1F (stereo not shown) [Compound 44] | ≤ 100 | 
Cc1ccc(-n2nnnc2-c2cc(-c3cn(C4CCNCC4)nc3C)cnc2N)c(F)c1F [Compound 45] | ≤ 100 | 
Cc1ccc(-n2nnnc2-c2cc(-c3cn(C4CCCNCC4)nc3C)cnc2N)c(F)c1F (stereo not shown) [Compound 46] | ≤ 100 | 
Cc1ccc(-n2nnnc2-c2cc(-c3cn(C4CCNCC4)nc3C(F)(F)F)cnc2N)c(F)c1F [Compound 47] | 100 to 1000 | 
Cc1ccc(-n2nnnc2-c2cc(-c3cnn(C4C[C@H]5CNC[C@H]5C4)c3)cnc2N)c(F)c1F (stereo partly shown) [Compound 48] | 100 to 1000 | 
COc1ccc(-n2nnnc2-c2cc(-c3cnn(C4CCNCC4)c3)cnc2N)c(F)c1 [Compound 50] | 100 to 1000 | 
